Data reported in patent US9796672B2, “Isoindoline compositions and methods for treating neurodegenerative disease” (Cognition Therapeutics, Inc., priority 2014, dated 2017).

What was measured:
[1] = system: caspase-3; details: tumor cells and neurons; cited from earlier work
[2] = system: neurons; details: 24 hours treatment; cited from earlier work
[3] = system: MDA-MB-435 or MDA-MB231 or SKOV-3 cells; assay: Tumor cell viability (MTS) assay; type: cell-based
Description: The cytotoxicity of test compounds is determined using the CellTiter96 Aqueous One Solution Assay (Promega, Madison, Wis.). Briefly, MDA-MB-435 or MDA-MB231 or SKOV-3 cells were seeded in a 96-well plate at a density of 2000 cells/well on the day prior to treatment with sigma-2 receptor selective ligands. […] The plate is read at 490 nm in a Victor3 plate reader (PerkinElmer Life and Analytical Sciences, Shelton, Conn.). The EC^50 value, defined as the concentration of the sigma ligand required to inhibit cell viability by 50% relative to untreated cells, is determined from the dose response curve for each cell line. Siramesine is accepted as an agonist.

In the case of `COc1ccc(C)cc1NC(=O)OC1C[C@H]2CCC[C@@H](C1)N2CCCCCCN` (stereo partly shown) [SV-119], the caspase-3 activation [1] is given as “activate caspase-3 in tumor cells and neurons”, the “nuclear morphology / nuclear intensity in neurons” value [2] is given as “cause significant abnormal nuclear morphology in neurons” and the Action [3] is given as “Full agonist”. It also gave an IC50 ([3]; read-out: IC50, 48 hrs., Tumor cell viability, 48 hrs) of 21.7 ± 2.9 µM.
